The values below come from US20240245691A1 (Sitryx Therapeutics Limited, priority 2021, published 2024).

Data set [1] concerns cryo-preserved hepatocytes. As to the kind of experiment: Hepatocyte stability assay, human. It counts as in vitro ADME. The conditions noted are these: human, hepatocytes. The source says:
(§1) Defrosted cryo-preserved hepatocytes (viability>70%) were used to determine the metabolic stability of a compound via calculation of intrinsic clearance (CIint; a measure of the removal of a compound from the liver in the absence of blood flow and cell binding). Clearance data are particularly important for in vitro work as they can be used in combination with in vivo data to predict the half-life and oral bioavailability of a drug.
(§2) The metabolic stability in hepatocytes assay involved a time-dependent reaction using both positive and negative controls. The cells must be pre-incubated at 37° C. then spiked with test compound (and positive control); samples taken at pre-determined time intervals were analysed to monitor the change in concentration of the initial drug compound over 60 minutes. A buffer incubation reaction (with no hepatocytes present) acted as a negative control and two cocktail solutions, containing compounds with known high and low clearance values (verapamil/7-hydroxycoumarin and propranolol/diltiazem), acted as positive controls. • 1. The assay was run with a cell concentration of 0.5×10^6 cells/mL in Leibovitz buffer. • 2. All compounds and controls were run in duplicate. • 3. Compound concentration was 10 μM. • 4. All compounds and controls were incubated with both cells and buffer to show turnover is due to hepatic metabolism. • 5. All wells on the incubation plate had 326.7 μL of either cells or buffer added. • 6. Prior to assay, cell and buffer-only incubation plates were preincubated for 10 mins at 37° C. • 7. The assay was initiated by adding compounds, 3.3 μL of 1 mM in 10% DMSO-90% Buffer; final DMSO concentration is 0.1%. • 8. Samples were taken at regular timepoints (0, 5, 10, 20, 40, 60 min) until 60 mins. • 9. Sample volume was 40 μL and added to 160 μL of crash solvent (acetonitrile with internal standard) and stored on ice. • 10. At the end of the assay, the crash plates were centrifuged at 3500 rpm for 20 mins at 4° C. • 11. 80 μL of clear supernatant was removed and mixed with 80 μL of deionised water before being analysed by LC-MS/MS.
(§3) Raw LC-MS/MS data were exported to, and analysed in, Microsoft Excel for determination of intrinsic clearance. The percentage remaining of a compound was monitored using the peak area of the initial concentration as 100%. Intrinsic clearance and half-life values were calculated using a graph of the natural log of percentage remaining versus the time of reaction in minutes.
(§4) 4-Octyl itaconate was included as a comparator compound.

Data set [2] can be described thus: Hepatocyte stability assay, human. It counts as in vitro ADME. The conditions noted are these: human, hepatocytes, T½.
From the text: as §1, §2, §3, §4

The subject of a further data set is IL-1β. Nature of the data set: THP-1 AlphaLISA IL-1β cytokine assay (differentiated THP-1 cells). In kind it is cell-based. The conditions noted are these: Homo sapiens, THP-1, differentiated THP-1 cells, LPS 24 hr then Nigericin 1 hour; read-out: IL-1β (IC50). How it is done:
(§5) Measuring Inhibitory Effects on IL-1V Cytokine and IL-6 Output from THP-1s
(§6) The cytokine inhibition profiles of compounds of formula (I) were determined in a differentiated THP-1 cell assay. All assays were performed in RPMI-1640 growth medium (Gibco), supplemented with 10% fetal bovine serum (FBS; Gibco), 1% penicillin-streptomycin and 1% sodium pyruvate unless specified otherwise. The IL-1β and IL-6 cytokine inhibition assays were run in a background of differentiated THP-1 cells as described below. All reagents described were from Sigma-Aldrich unless specified otherwise. Compounds were prepared as 10 mM DMSO stocks.
(§7) THP-1 cells were expanded as a suspension up to 80% confluence in appropriate growth medium. Cells were harvested, suspended, and treated with an appropriate concentration of phorbol 12-myristate 13-acetate (PMA) over a 72 hr period (37° C./5% CO2).
(§8) Following 72 hrs of THP-1 cell incubation, cellular medium was removed and replaced with fresh growth media containing 1% of FBS. Working concentrations of compounds were prepared separately in 10% FBS treated growth medium and pre-incubated with the cells for 30 minutes (37° C./5% CO2). Following the 30 minute compound pre-incubation, THP-1s were treated with an appropriate concentration of LPS and the THP-1s were subsequently incubated for a 24 hr period (37° C./5% CO2). An appropriate final concentration of Nigericin was then dispensed into the THP-1 plates and incubated for 1 hour (37° C./5% CO2) before THP-1 supernatants were harvested and collected in separate polypropylene 96-well holding plates.
(§9) Reagents from each of the IL-1β and IL-6 commercial kits (Perkin Elmer) were prepared and run according to the manufacturer's instructions. Subsequently, fluorescence signal detection in a microplate reader was measured (EnVision® Multilabel Reader, Perkin Elmer).
(§10) Percentage inhibition was calculated per cytokine by normalising the sample data to the high and low controls used within each plate (+/−LPS respectively).
(§11) Dimethyl itaconate and 4-octyl itaconate were included as comparator compounds.

For the next data set, the system named is IL-6. Nature of the data set: THP-1 AlphaLISA IL-6 cytokine assay (differentiated THP-1 cells). It counts as cell-based. The conditions noted are these: LPS 24 hr then Nigericin 1 hour, read-out: IL-6 (IC50). The method, then:
as §5, §6, §7, §8, §9, §10, §11
In general terms: Bead proximity is the source of the signal in Alpha formats.

The test system of data set [3] is cryo-preserved hepatocytes. Nature of the data set: Hepatocyte stability assay, mouse. It counts as in vitro ADME. The conditions noted are these: mouse, hepatocytes.
From the text: as §1, §2, §3, §4

Data set [4] in a line: Hepatocyte stability assay, mouse. In kind it is in vitro ADME. The conditions noted are these: mouse, hepatocytes, T½.
From the text: as §1, §2, §3, §4

In data set [5] the test system is NRF2 (nuclear factor erythroid 2-related factor 2). Nature of the data set: NRF2 +/-GSH activation assay (DiscoverX PathHunter NRF2 translocation kit, U2OS cells). It counts as cell-based. The conditions noted are these: Homo sapiens; for Emax: U2OS, normalised to dimethyl fumarate high control; for EC50: U2OS PathHunter cells, 6 hours.
The mark [6] stands for this setting: +GSH, read-out: NRF2 activation Emax, +GSH.
Where [7] appears, read: −GSH, read-out: NRF2 activation Emax, −GSH.
Setting [8] is: +GSH, read-out: NRF2 activation EC50, +GSH.
Setting [9] is: −GSH, read-out: NRF2 activation EC50, −GSH.
Where [10] appears, read: Homo sapiens, THP-1, differentiated THP-1 cells.

As a reminder, the half-life is how long it takes for the measured level to halve. For orientation: IC50 means the concentration needed to halve the response being measured. Broadly, the Emax is the greatest response seen or fitted, relative to the assay's reference. For orientation: EC50 means the concentration giving half of the maximal effect.

Read-outs that look alike come from different tables or passages of the source. A value given as a limit tells only on which side of the number the result lay.

Consider `C=C(C(=O)O)C(C)C(=O)N[C@@H](C)c1ccc(C(F)(F)F)cc1` (single isomer, unassigned; isomer 1) [Example 54], for which the Clint in data set [1] is <3 μL min^−1 10^−6 cells; in data set [3], 4 μL min^−1 10^−6 cells. Further, the results for the half-life at 10 μM in data set [2] and in data set [4] were > 7.67 h and 6.67 h, respectively. Also, the IC50 in the data set on IL-1β is 31 µM; with IL-6 (differentiated THP-1 cells), > 100 µM.
Regarding `C=C(CC(=O)NCc1ccc(Cl)cc1)C(=O)OC1CCN(S(C)(=O)=O)CC1` [Example 1, 1-(methylsulfonyl)piperidin-4-yl 4-((4-chlorobenzyl)amino)-2-methylene-4-oxobutanoate], the Clint in data set [1] was determined as 12 μL min^−1 10^−6 cells; in data set [3] it was 31 μL min^−1 10^−6 cells. In addition, the “Clint, data from repeated experiments” value in data set [1] is listed as 31ª μL min^−1 10^−6 cells; in data set [3], 133 μL min^−1 10^−6 cells. Also, the half-life at 10 μM is 1.95 h in data set [2], 0.783 h in data set [2] (data from repeated experiments), 1.63 h in data set [4] and 0.183 h in data set [4] (data from repeated experiments). For the same compound, in the data set with IL-1β, the IC50 was determined as 12.3 µM. Further, the values for the Emax in data set [5] (setting [6]) and in data set [5] (setting [7]) were 19% and 63%, respectively. Besides, the EC50 was > 100 µM in data set [5] (setting [8]) and 22.3 µM in data set [5] (setting [9]).
Regarding `C=C(CC(=O)NC1CCCCCCC1)C(=O)OC1CCN(S(C)(=O)=O)CC1` [Example 2, 1-(methylsulfonyl)piperidin-4-yl 4-(cyclooctylamino)-2-methylene-4-oxobutanoate], the Clint is recorded as 14 μL min^−1 10^−6 cells in data set [1] and 119 μL min^−1 10^−6 cells in data set [3]. For the same compound, the “Clint, data from repeated experiments” value is recorded as 21ª μL min^−1 10^−6 cells in data set [1] and 156ª μL min^−1 10^−6 cells in data set [3]. Also, the half-life at 10 μM in data set [2] turned out to be 2 h; in data set [2] (data from repeated experiments), 1.28 h; in data set [4], 0.983 h; in data set [4] (data from repeated experiments) it was 0.15 h. For the same compound, the IC50 in the data set with IL-1β stood at 8.5 µM. In addition, the Emax in data set [5] (setting [6]) stood at 90%; in data set [5] (setting [7]) it was 127%. Also, the EC50 in data set [5] (setting [8]) amounted to 41.9 µM; in data set [5] (setting [9]), 24.9 µM.
For `C=C(CC(=O)NC(c1ccc(C(F)(F)F)cc1)C(F)(F)F)C(=O)O` (stereo not shown) [Example 7, 2-methylene-4-oxo-4-((2,2,2-trifluoro-1-(4-(trifluoromethyl)phenyl)ethyl)amino)butanoic acid], the Clint was <3 μL min^−1 10^−6 cells in data set [1] and 21 μL min^−1 10^−6 cells in data set [3]. Moreover, the results for the half-life at 10 μM in data set [2] and in data set [4] were > 7.67 h and 1.25 h, respectively. Also, the IC50 is 8.2 µM in the data set with IL-1β and > 100 µM in the data set with IL-6 (setting [10]).
Regarding `C=C(CC(=O)NC(c1ccc(C(F)(F)F)cc1)C1CC1)C(=O)O` (stereo not shown) [Example 10, 4-((cyclopropyl(4-(trifluoromethyl)phenyl)methyl)amino)-2-methylene-4-oxobutanoic acid], the Clint in data set [1] and in data set [3] was <3 μL min^−1 10^−6 cells each time. Besides, the half-life at 10 μM in data set [2] and in data set [4] was > 7.67 h each time. The IC50 was 16.6 µM in the data set with IL-1β and > 100 µM in the data set on IL-6 (setting [10]).
With `C=C(CC(=O)NC1(c2ccc(C(F)(F)F)cc2)CC1)C(=O)O` [Example 11, 2-methylene-4-oxo-4-((1-(4-(trifluoromethyl)phenyl)cyclopropyl)amino)butanoic acid], the Clint in data set [1] and in data set [3] was <3 μL min^−1 10^−6 cells in each case. For the same compound, the half-life at 10 μM in data set [2] and in data set [4] was > 7.67 h throughout. The IC50 in the data set with IL-1β is 8.3 µM; in the data set with IL-6 (setting [10]), > 100 µM.
For `C=C(CC(=O)N[C@@H](C)c1ccc(C(F)(F)F)cc1)C(=O)OCCNS(C)(=O)=O` [Example 25, 2-(methylsulfonamido)ethyl (S)-2-methylene-4-oxo-4-((1-(4-(trifluoromethyl)phenyl)ethyl)amino)butanoate], the Clint was 21 μL min^−1 10^−6 cells in data set [1] and 153 μL min^−1 10^−6 cells in data set [3]. In addition, the half-life at 10 μM is 1.17 h in data set [2] and 0.183 h in data set [4]. Besides, in the data set with IL-1β, the IC50 stood at 4.1 µM.
On to `C=C(CC(=O)N[C@@H](C)c1ccc(C(F)(F)F)cn1)C(=O)OC1CCN(C)CC1` [Example 32, 1-methylpiperidin-4-yl (S)-2-methylene-4-oxo-4-((1-(5-(trifluoromethyl)pyridin-2-yl)ethyl)amino)butanoate], for which the Clint in data set [1] is given as 12 μL min^−1 10^−6 cells; in data set [3], 87 μL min^−1 10^−6 cells. In addition, the half-life at 10 μM in data set [2] came out at 2.05 h; in data set [4] it was 0.333 h. Further, the IC50 in the data set on IL-1β was determined as 8.9 µM. Besides, the Emax in data set [5] (setting [6]) came out at 12%; in data set [5] (setting [7]), 58%. Besides, the EC50 in data set [5] (setting [8]) is > 100 µM; in data set [5] (setting [9]), 46.2 µM.
As to `CC/C=C(\CC(=O)N[C@@H](C)c1ccc(C(F)(F)F)cc1)C(=O)O` [Example 43, (S,E)-2-(2-oxo-2-((1-(4-(trifluoromethyl)phenyl)ethyl)amino)ethyl)pent-2-enoic acid], the Clint is on record as <3 μL min^−1 10^−6 cells in data set [1] and 9 μL min^−1 10^−6 cells in data set [3]. Besides, the half-life at 10 μM in data set [2] was > 7.67 h; in data set [4], 2.72 h. The IC50 in the data set with IL-1β came to 2.1 µM.
In the case of `CC(C)/C=C(\CC(=O)N[C@@H](C)c1ccc(C(F)(F)F)cc1)C(=O)O` [Example 44, (S,E)-4-methyl-2-(2-oxo-2-((1-(4-(trifluoromethyl)phenyl)ethyl)amino)ethyl)pent-2-enoic acid], the values for the Clint in data set [1] and in data set [3] were <3 μL min^−1 10^−6 cells and 6 μL min^−1 10^−6 cells, respectively. For the same compound, the half-life at 10 μM in data set [2] was > 7.67 h; in data set [4], 3.98 h. For the same compound, in the data set with IL-1β, the IC50 is 4.2 µM.
Consider `C[C@H](NC(=O)C/C(=C\CCc1ccccc1)C(=O)O)c1ccc(C(F)(F)F)cc1` [Example 46, (S,E)-2-(2-oxo-2-((1-(4-(trifluoromethyl)phenyl)ethyl)amino)ethyl)-5-phenylpent-2-enoic acid], for which the Clint in data set [1] was found to be 7 μL min^−1 10^−6 cells; in data set [3] it was 37 μL min^−1 10^−6 cells. Also, the half-life at 10 μM came to 3.35 h in data set [2] and 0.667 h in data set [4]. Moreover, in the data set on IL-1β, the IC50 was 2.5 µM.
